# Data from patent US20220218838A1, “ADC FOR A TREATMENT CONCOMITANT WITH OR SUBSEQUENT TO DOCETAXEL” (PIERRE FABRE MEDICAMENT, priority 2019, published 2022).
# Experiments:
# [1] = tested on: MCF-7 tumour; experiment: In-vivo activity in a breast cancer model: nude mice grafted with MCF-7 cells, after onset of docetaxel resistance; settings: docetaxel 9 mg/kg intravenously, 5 injections, mice bearing MCF-7 tumours
# Experimental: Determination of in-vivo activity: In-vivo activity is tested in a breast cancer model: 7-week old nude female mice (Charles River Laboratories, n=15) were subcutaneously grafted with 5×10^6 MCF-7 cells 1 day after subcutaneous implantation of 0.72 mg of granules releasing 17β-estradiol (Innovative Research of America) for 60 days.
# The mice are randomised, and treatment is initiated when the tumours reach a size of approximately 150 mm^3. The tumour volume (length×width×height×0.52) is measured at least twice a week and the therapeutic response is defined using solid tumour response criteria (RECIST).
# Mice bearing MCF-7 tumours are injected intravenously with docetaxel, 9 mg/kg twice a week for a total of 5 injections.
# The percentage of the regression values is calculated using the following formula:
# where T=the tumour volume in the treated group, ΔT=the tumour volume in the treated group on the day of the study minus the tumour volume in the treated group on the initial day of administration, and Tinitial=the tumour volume in the treated group on the initial day of the administration The disease is considered to be progressing when the tumour size increases by >20%. Partial regression (PR) is defined as a reduction in tumour size >30%. […]
# [2] = biological target: IGF-IR (Homo sapiens, UniProt P08069); settings: read-out: Kd of binding to IGF-IR; cited from earlier work
# IGF-IR, sequence (P08069 31-736 limits assumed): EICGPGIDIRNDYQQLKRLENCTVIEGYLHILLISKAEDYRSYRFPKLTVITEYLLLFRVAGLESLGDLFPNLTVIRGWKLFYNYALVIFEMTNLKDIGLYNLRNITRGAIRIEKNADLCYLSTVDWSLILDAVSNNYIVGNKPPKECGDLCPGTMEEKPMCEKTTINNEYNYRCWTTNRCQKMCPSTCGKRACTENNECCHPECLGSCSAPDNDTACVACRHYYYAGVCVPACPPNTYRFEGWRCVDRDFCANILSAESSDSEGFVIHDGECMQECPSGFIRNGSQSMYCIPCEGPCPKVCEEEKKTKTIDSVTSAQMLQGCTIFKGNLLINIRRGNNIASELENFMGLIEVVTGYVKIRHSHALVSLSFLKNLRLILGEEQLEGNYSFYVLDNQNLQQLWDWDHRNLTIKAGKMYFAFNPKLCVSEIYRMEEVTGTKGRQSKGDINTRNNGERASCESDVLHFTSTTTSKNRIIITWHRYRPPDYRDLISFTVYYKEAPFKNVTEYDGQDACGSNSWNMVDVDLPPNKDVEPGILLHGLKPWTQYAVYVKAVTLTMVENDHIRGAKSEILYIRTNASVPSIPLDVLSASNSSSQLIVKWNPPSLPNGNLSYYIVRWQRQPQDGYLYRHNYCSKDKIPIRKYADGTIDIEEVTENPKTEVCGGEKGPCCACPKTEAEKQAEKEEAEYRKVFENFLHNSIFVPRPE
# IGF-IR, sequence (P08069 741-1367 partner limits assumed): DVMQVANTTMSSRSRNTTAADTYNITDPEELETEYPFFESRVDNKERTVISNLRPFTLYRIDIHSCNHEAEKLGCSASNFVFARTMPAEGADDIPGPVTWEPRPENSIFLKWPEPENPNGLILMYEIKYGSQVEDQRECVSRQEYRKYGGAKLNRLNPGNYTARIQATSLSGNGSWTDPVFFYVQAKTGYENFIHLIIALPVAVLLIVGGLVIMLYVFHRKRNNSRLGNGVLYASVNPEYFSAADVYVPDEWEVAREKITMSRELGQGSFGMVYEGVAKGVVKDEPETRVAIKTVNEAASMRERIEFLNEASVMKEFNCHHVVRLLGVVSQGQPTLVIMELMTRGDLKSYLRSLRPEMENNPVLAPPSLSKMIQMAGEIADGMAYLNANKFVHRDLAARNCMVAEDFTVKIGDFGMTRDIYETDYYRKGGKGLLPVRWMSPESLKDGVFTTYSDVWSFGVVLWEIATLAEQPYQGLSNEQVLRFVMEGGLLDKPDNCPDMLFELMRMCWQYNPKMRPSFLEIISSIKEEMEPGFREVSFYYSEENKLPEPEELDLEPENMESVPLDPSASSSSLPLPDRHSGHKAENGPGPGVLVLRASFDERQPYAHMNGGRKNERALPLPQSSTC
Molecule,time after which the tumours became resistant to docetaxel and relapsed [1] [days],Kd [2] [nM]
CC(=O)O[C@@]12CO[C@@H]1C[C@H](O)[C@@]1(C)C(=O)[C@H](O)C3=C(C)[C@@H](OC(=O)[C@H](O)[C@@H](NC(=O)OC(C)(C)C)c4ccccc4)C[C@@](O)([C@@H](OC(=O)c4ccccc4)[C@H]21)C3(C)C [docetaxel],70,
IGF2: natural ligand bound by IGF-IR,,~1
